From EP0031653A1, “N-Substituted alpha-amino acids, processes for making them and pharmaceutical compositions containing them” (BEECHAM GROUP PLC, priority 1979, dated 1981) come the findings set out here.

In experiment [1] the test system is normolipidaemic rats. Description: Effects on serum lipids in vivo, rat Model B (semi-synthetic diet rich in sucrose and cholesterol). On the set-up: species or system Male Sprague-Dawley rats. As to conditions: compound at 0.1% of the diet (approximately 100 mg/kg/day), 7 days, * = significant at p<0.05. On the procedure: (§1) The compounds of the Examples above were tested for their effects on serum lipids in vivo using normolipidaemic rats.
(§2) Male Sprague-Dawley rats, 80-100 g, were randomised into groups of 8 after 5-7 days of feeding on the diet. The compounds were fed to the rats at a concentration of 0.1% of the powered diet (i.e. approximately 100 mg/kg/day), unless otherwise stated. The control groups were fed only the diet. At the end of the experiment, i.e. after 7 days, the rats were killed and their individual total serum cholesterol and triglyceride measured in mg/100 ml using a Technicon Autoanalyser. The high density lipoprotein (HDL)-cholesterol fraction, which was obtained from the serum by precipitation with heparin-manganous chloride, was only measured on "pooled" samples from each group.
(§3) The results are shown in Table 1 below. • ^+ Model A used an Oxoid diet. • Model B used a semi-synthetic diet rich in sucrose and cholesterol

Experiment [2] has as its system normolipidaemic rats. Description: Effects on serum lipids in vivo, rat Model A (Oxoid diet). As to conditions: po, 168 h, compound at 0.1% of the diet (approximately 100 mg/kg/day), 7 days. On the set-up: species or system Male Sprague-Dawley rats. On the procedure:
as §1, §2, §3

[3] abbreviates: * = significant at p<0.05, read-out: Percentage difference from control values in Total Serum cholesterol.
Where [4] appears, read: * = significant at p<0.05, read-out: Percentage difference from control values in Total Serum triglyceride.

Where two headings read alike, the source gives them in different places.

For the compound `O=C(O)C(Cc1ccncc1)NCc1ccc(Cl)cc1` (racemic) [Example 12, DL-2-(4-Chlorobenzylamino)-3-(4-pyridyl)-propionic acid], in the experiment on normolipidaemic rats [1], the “Percentage difference from control values in Total Serum cholesterol” value is recorded as -10% and the “Percentage difference from control values in Total Serum triglyceride” value is given as -10%.

As to `O=C(O)C(Cc1ccccn1)NCc1ccc(Cl)cc1` (racemic) [Example 11, DL-2-(4-Chlorobenzylamino)-3-(2-pyridyl)-propionic acid], in the experiment with normolipidaemic rats [1], the “Percentage difference from control values in Total Serum cholesterol” value is given as “+27^* %” and the “Percentage difference from control values in Total Serum triglyceride” value is reported as “+27%”.

As to `O=C(O)[C@H](Cc1ccccc1)NCc1ccc(Br)cc1` [Example 4, N-(4-Bromobenzyl)-L-phenylalanine], the change in vivo at 100 mg/kg/day was 43% in the experiment with normolipidaemic rats [2] (setting [3]) and -40% in the experiment with normolipidaemic rats [2] (setting [4]).

For `O=C(O)[C@H](Cc1ccccc1)NCc1ccc(Cl)cc1` [Example 2, N-(4-chlorobenzyl)-L-phenylalanine], the change in vivo at 100 mg/kg/day was 31% in the experiment on normolipidaemic rats [2] (setting [3]) and -40% with normolipidaemic rats [2] (setting [4]). Also, in the experiment on normolipidaemic rats [1], the “Percentage difference from control values in Total Serum cholesterol” value is on record as “+14%”. Moreover, the “Percentage difference from control values in Total Serum triglyceride” value in the experiment on normolipidaemic rats [1] is recorded as -44^* %.

As to `O=C(O)[C@@H](Cc1ccccc1)NCc1ccc(Cl)cc1` [Example 3, N-(4-Chlorobenzyl)-D-phenylalanine], in the experiment with normolipidaemic rats [1], the “Percentage difference from control values in Total Serum cholesterol” value is “+49^* %” and the “Percentage difference from control values in Total Serum triglyceride” value is -67^* %.

Turning to `O=C(O)[C@H](Cc1ccccc1)NCc1ccc2c(c1)OCO2` [Example 1, N-(3,4-methylenedioxybenzyl)-L-phenylalanine], the change in vivo at 100 mg/kg/day in the experiment with normolipidaemic rats [2] (setting [4]) is -31%.

For the compound `O=C(O)[C@H](CSCc1ccccc1)NCc1ccc(Cl)cc1` [Example 8, N-(4-Chlorobenzyl)-S-benzyl-L-cysteine], the change in vivo at 100 mg/kg/day with normolipidaemic rats [2] (setting [3]) is 52%; with normolipidaemic rats [2] (setting [4]), -35%.

On to `O=C(O)[C@H](Cc1ccc(O)cc1)NCc1ccc(Cl)cc1` [Example 17, N-4-chlorobenzyl-tyrosine], for which the change in vivo at 100 mg/kg/day in the experiment on normolipidaemic rats [2] (setting [4]) was -18%.

With `O=C(O)[C@H](Cc1ccccc1)NCc1cccc(C(F)(F)F)c1` [Example 5, N-(3-Trifluoromethylbenzyl)-L-phenylalanine], the change in vivo at 100 mg/kg/day is 47% in the experiment with normolipidaemic rats [2] (setting [3]) and -41% in the experiment with normolipidaemic rats [2] (setting [4]).

For the compound `O=C(O)C(CCc1ccccc1)NCc1ccc(Cl)cc1` (racemic) [Example 15, (DL)-2-(4-Chlorobenzylamino)-4-phenylbutyric acid], the change in vivo at 100 mg/kg/day in the experiment with normolipidaemic rats [2] (setting [3]) is 68%; in the experiment on normolipidaemic rats [2] (setting [4]) it was -11%.

`O=C(O)C(Cc1ccc(Cl)cc1)NCc1ccc(Cl)cc1` (racemic) [Example 7, N-(4-Chlorobenzyl)-DL-4-chlorophenylalanine]: the figures for the change in vivo at 100 mg/kg/day with normolipidaemic rats [2] (setting [3]) and in the experiment with normolipidaemic rats [2] (setting [4]) were 56% and -50%, respectively.

On to `COC(=O)[C@H](Cc1ccccc1)NCc1ccc(Cl)cc1` [Example 18, N-(4-chlorobenzyl)-L-phenylalanine methyl ester], for which the change in vivo at 100 mg/kg/day in the experiment on normolipidaemic rats [2] (setting [3]) was 25%; in the experiment on normolipidaemic rats [2] (setting [4]), -43%.

As to `O=C(O)C(Cc1c[nH]c2ccccc12)NCc1ccc(Cl)cc1` (racemic) [Example 14, N-4-Chlorobenzyl-DL-tryptophan], the change in vivo at 100 mg/kg/day in the experiment on normolipidaemic rats [2] (setting [3]) turned out to be 36%.
